The data set is described as follows: Solubility of polymorph A at room temperature (measurements taken at equilibrium). Format: physicochemical. The note with it: for solubility: thermodynamic from solid. The method, then: The polymorph A of [1-(4-tert-Butylbenzyl)-5-(3-methylphenyl)-1H-indol-3-yl](oxo)acetic acid of this invention can also be characterized by its solubility rate which is shown in FIG. 5. The solubility rate intrinsic dissolution was conducted in pH 7.5 phosphate buffer medium using USP apparatus 2 (paddle) at 50 rpm. The dissolution rate may be influenced by disk rotation speed and other conditions. The solubility of polymorph A of [1-(4-tert-Butylbenzyl)-5-(3- methylphenyl)-1H-indol-3-yl](oxo)acetic acid has been determined in a number of solvents and the results are listed in Table 5. The solubilities listed in Table 5 are based on measurements taken at equilibrium.

Converted amounts (≈) assume the structure as drawn. A value given as a limit tells only on which side of the number the result lay.

Regarding `Cc1cccc(-c2ccc3c(c2)c(C(=O)C(=O)O)cn3Cc2ccc(C(C)(C)C)cc2)c1` [Polymorph A, [1-(4-tert-Butylbenzyl)-5-(3-methylphenyl)1H-indol-3-yl](oxo)acetic acid], the solubility is, setting by setting: (2% polysorbate 80/0.5% methylcellulose, aqueous with cosolvent or surfactant or cyclodextrin, 2% Polysorbate80/0.5% Methylcellulose) 1.09 mg/mL (≈ 2.56 mM); (organic solvent or mixture, Acetone) 277 mg/mL (≈ 651 mM); (organic solvent or mixture, DMSO) over 500 mg/mL; (organic solvent or mixture, Ethanol) 12.2 mg/mL (≈ 28.8 mM); (organic solvent or mixture, Propylene Carbonate) 103 mg/mL (≈ 243 mM); (organic solvent or mixture, Propylene Glycol) 7.1 mg/mL (≈ 16.7 mM). The compound further returned a solubility (Deionized Water) of 0.024 mg/mL (≈ 0.0564 mM). The “Solubility of Polymorph A” value is, setting by setting: (Capryol 90) 73.8 mg/g; (Cremophore EL) 290 mg/g; (Labrasol) over 160 mg/g; (PEG 200) over 100 mg/g; (PEG 400) over 100 mg/g; (Phosal 53 MCT) 311 mg/g. Also, the “Solubility of Polymorph A” value (Polysorbate 80) was over 200 mg/g.

(Values after patent US20080188542A1, “NOVEL INDOLE POLYMORPHS” (Wyeth, priority 2007, published 2008).)
